Where a name gives a salt, the structure may show the parent alone.

This is an account of results in patent US8716303B2, “N-(hetero)aryl-pyrrolidine derivatives of pyrazol-4-yl-pyrrolo[2,3-d]pyrimidines and pyrrol-3-yl-pyrrolo[2,3-d]pyrimidines as janus kinase inhibitors” (Incyte Corporation, priority 2009, dated 2014).

One experiment concerns the target T1, Jak2 (a.a. 828-1132) (Homo sapiens, UniProt O60674).
T1 construct: Jak2 (a.a. 828-1132); His tag (N); made in house; host or cells: insect cells (baculovirus)
The experiment is described as follows: In vitro JAK kinase assay (HTRF, phosphorylation of a biotinylated peptide), JAK2, reported as JAK2/JAK1 ratio. It is filed as biochemical. Background: In TR-FRET formats the signal depends on donor and acceptor labels being close together.

Experiment [1] deals with T2, human JAK1 (a.a. 837-1142) (Homo sapiens, UniProt P23458).
T2 construct: human JAK1 (a.a. 837-1142); His tag (N); made in house; host or cells: insect cells (baculovirus)
Put plainly: In vitro JAK kinase assay (HTRF, phosphorylation of a biotinylated peptide), JAK1. It counts as biochemical. An outline of the steps:
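IC50s come from HTRF detection (Eu-Py20, SA-APC, 40 min binding) after 1 h RT reactions with 500 nM biotinylated peptide in Tris pH 7.8 buffer. ATP either 1 mM or Km-level, 90 μM for JAK1 and 30 μM for JAK2; enzymes are baculovirus-expressed His-tagged catalytic domains (JAK1 837-1142, JAK2 828-1132).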

T1 sequence (O60674 828-1132): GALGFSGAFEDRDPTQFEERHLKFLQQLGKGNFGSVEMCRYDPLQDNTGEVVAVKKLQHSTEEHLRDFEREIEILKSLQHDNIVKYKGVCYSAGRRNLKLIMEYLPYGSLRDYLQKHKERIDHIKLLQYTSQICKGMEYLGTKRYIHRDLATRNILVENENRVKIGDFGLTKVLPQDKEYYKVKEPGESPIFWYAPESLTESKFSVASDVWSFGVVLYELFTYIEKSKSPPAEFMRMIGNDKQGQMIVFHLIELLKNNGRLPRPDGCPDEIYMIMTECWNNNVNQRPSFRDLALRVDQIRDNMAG
T2 sequence (P23458 849-1154): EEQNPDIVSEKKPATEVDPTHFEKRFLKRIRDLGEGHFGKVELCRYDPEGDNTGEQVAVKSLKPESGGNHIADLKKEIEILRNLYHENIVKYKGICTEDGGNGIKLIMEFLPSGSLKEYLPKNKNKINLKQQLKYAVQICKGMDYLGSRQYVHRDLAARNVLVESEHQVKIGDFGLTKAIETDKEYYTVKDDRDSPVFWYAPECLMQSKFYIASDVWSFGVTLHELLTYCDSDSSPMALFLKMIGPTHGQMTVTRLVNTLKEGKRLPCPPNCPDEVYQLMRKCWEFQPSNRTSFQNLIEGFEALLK

In the case of `N#Cc1ccnc(N2CC[C@H](C(CF)n3cc(-c4ncnc5[nH]ccc45)cn3)C2)c1C#N` (stereo partly drawn) [Example 120, 2-((3S)-3-(1-(4-(7H-pyrrolo[2,3-d]pyrimidin-4-yl)-1H-pyrazol-1-yl)-2-fluoroethyl)pyrrolidin-1-yl)pyridine-3,4-dicarbonitrile trifluoroacetate], on Jak2 (a.a. 828-1132) (Assay Conditions 1 mM ATP), the “JAK2/JAK1 IC50 ratio” value came to 3.5. The compound further registered an IC50 in experiment [1] (Assay Conditions 1 mM ATP) of under 50 nM.
The corresponding values for `N#CC[C@@H]([C@H]1CCN(c2nc(Br)ccc2F)C1)n1cc(-c2ncnc3[nH]ccc23)cn1.O=C(O)C(F)(F)F.O=C(O)C(F)(F)F` [Example 88, (3S)-3-[(3S)-1-(6-bromo-3-fluoropyridin-2-yl)pyrrolidin-3-yl]-3-[4-(7H-pyrrolo[2,3-d]pyrimidin-4-yl)-1H-pyrazol-1-yl]propanenitrile bis(trifluoroacetate)] are 40.0 and under 50 nM.
As to `N#CC[C@@H]([C@H]1CCN(c2ncc3sccc3c2C#N)C1)n1cc(-c2ncnc3[nH]ccc23)cn1` [Example 74, 5-((3S)-3-{(1S)-2-cyano-1-[4-(7H-pyrrolo[2,3-d]pyrimidin-4-yl)-1H-pyrazol-1-yl]ethyl}pyrrolidin-1-yl)thieno[2,3-c]pyridine-4-carbonitrile], the “JAK2/JAK1 IC50 ratio” value at Jak2 (a.a. 828-1132) (Assay Conditions 1 mM ATP) stood at 6.2. In experiment [1] (Assay Conditions 1 mM ATP), this compound showed an IC50 of under 50 nM.
Regarding `N#CCC(C1CCN(c2ccc3c(n2)S(=O)(=O)CC3)C1)n1cc(-c2ncnc3[nH]ccc23)cn1` (single isomer, unassigned) [Example 30, 3-[1-(1,1-dioxido-2,3-dihydrothieno[2,3-b]pyridin-6-yl)pyrrolidin-3-yl]-3-[4-(7H-pyrrolo[2,3-d]pyrimidin-4-yl)-1H-pyrazol-1-yl]propanenitrile], the “JAK2/JAK1 IC50 ratio” value at Jak2 (a.a. 828-1132) (Assay Conditions 1 mM ATP) is listed as 14.5. Besides, in experiment [1] (Assay Conditions 1 mM ATP), the IC50 was under 50 nM.
In the case of `N#CC[C@@H]([C@H]1CCN(c2cccc(Br)c2C#N)C1)n1cc(-c2ncnc3[nH]ccc23)cn1` [Example 57, 2-bromo-6-((3S)-3-{(1S)-2-cyano-1-[4-(7H-pyrrolo[2,3-d]pyrimidin-4-yl)-1H-pyrazol-1-yl]ethyl}pyrrolidin-1-yl)benzonitrile trifluoroacetate salt], the “JAK2/JAK1 IC50 ratio” value at Jak2 (a.a. 828-1132) (Assay Conditions 1 mM ATP) was 37. In experiment [1] (Assay Conditions 1 mM ATP), this compound returned an IC50 of under 50 nM.
As to `N#CCC(C1CCN(c2scnc2C#N)C1)n1ccc(-c2ncnc3[nH]ccc23)c1` (racemic) [Example 149-1, 5-(3-{2-cyano-1-[3-(7H-pyrrolo[2,3-d]pyrimidin-4-yl)-1H-pyrrol-1-yl]ethyl}pyrrolidin-1-yl)-1,3-thiazole-4-carbonitrile], at Jak2 (a.a. 828-1132) (Assay Conditions 1 mM ATP), the “JAK2/JAK1 IC50 ratio” value amounted to 9.9. In addition, the IC50 in experiment [1] (Assay Conditions 1 mM ATP) is under 50 nM.
The corresponding values for `N#CC[C@@H]([C@H]1CCN(c2ccc(F)c(F)c2C#N)C1)n1cc(-c2ncnc3[nH]ccc23)cn1` [Example 60, 6-((3S)-3-{(1S)-2-cyano-1-[4-(7H-pyrrolo[2,3-d]pyrimidin-4-yl)-1H-pyrazol-1-yl]ethyl}pyrrolidin-1-yl)-2,3-difluorobenzonitrile trifluoroacetate salt] are 6.6 and under 50 nM.
`N#CCC(C1CCN(c2nc3cccc(F)c3o2)C1)n1ccc(-c2ncnc3[nH]ccc23)c1` (single isomer, unassigned) [Example 158-1, 3-[1-(7-fluoro-1,3-benzoxazol-2-yl)pyrrolidin-3-yl]-3-[3-(7H-pyrrolo[2,3-d]pyrimidin-4-yl)-1H-pyrrol-1-yl]propanenitrile]: the “JAK2/JAK1 IC50 ratio” value at Jak2 (a.a. 828-1132) (Assay Conditions 1 mM ATP) worked out at 22.5. Further, the IC50 in experiment [1] (Assay Conditions 1 mM ATP) was under 50 nM.
The corresponding values for `CNC(=O)c1cc(N2CCC(C(CC#N)n3cc(-c4ncnc5[nH]ccc45)cn3)C2)ccn1` (single isomer, unassigned) [Example 152, 4-(3-{2-cyano-1-[4-(7H-pyrrolo[2,3-d]pyrimidin-4-yl)-1H-pyrazol-1-yl]ethyl}pyrrolidin-1-yl)-N-methylpyridine-2-carboxamide] are 6.7 and under 50 nM.
Regarding `N#CCC(C1CCN(c2ncc3c(c2C#N)S(=O)(=O)CC3)C1)n1cc(-c2ncnc3[nH]ccc23)cn1` (single isomer, unassigned) [Example 172, 6-(3-{2-cyano-1-[4-(7H-pyrrolo[2,3-d]pyrimidin-4-yl)-1H-pyrazol-1-yl]ethyl}pyrrolidin-1-yl)-2,3-dihydrothieno[3,2-c]pyridine-7-carbonitrile 1,1-dioxide], the “JAK2/JAK1 IC50 ratio” value on Jak2 (a.a. 828-1132) (Assay Conditions 1 mM ATP) is recorded as 20.0. In experiment [1] (Assay Conditions 1 mM ATP), this compound returned an IC50 of under 50 nM.
Take `FCC([C@@H]1CCN(c2nc3cccnc3o2)C1)n1cc(-c2ncnc3[nH]ccc23)cn1` (stereo partly drawn) [71 (3R- enantiomer), 2-((3R)-3-{2-fluoro-1-[4-(7H-pyrrolo[2,3-d]pyrimidin-4-yl)-1H-pyrazol-1-yl]ethyl}pyrrolidin-1-yl) [1,3]oxazolo[5,4-b]pyridine phosphoric acid salt]: at Jak2 (a.a. 828-1132) (Assay Conditions 1 mM ATP), the “JAK2/JAK1 IC50 ratio” value is given as 5.9. Also, in experiment [1] (Assay Conditions 1 mM ATP), the IC50 was under 50 nM.
Turning to `N#CCC(C1CCN(c2nc3cc(F)ccc3o2)C1)n1cc(-c2ncnc3[nH]ccc23)cn1` (single isomer, unassigned) [Example 19, 3-[1-(5-fluoro-1,3-benzoxazol-2-yl)pyrrolidin-3-yl]-3-[4-(7H-pyrrolo[2,3-d]pyrimidin-4-yl)-1H-pyrazol-1-yl]propanenitrile], on Jak2 (a.a. 828-1132) (Assay Conditions 1 mM ATP), the “JAK2/JAK1 IC50 ratio” value came to 5.3. Besides, the IC50 in experiment [1] (Assay Conditions 1 mM ATP) is under 50 nM.
The corresponding values for `CCS(=O)(=O)c1cc(N2CCC(C(CC#N)n3ccc(-c4ncnc5[nH]ccc45)c3)C2)ccn1` (racemic) [Example 148-rac, 3-{1-[2-(ethylsulfonyl)pyridin-4-yl]pyrrolidin-3-yl}-3-[3-(7H-pyrrolo[2,3-d]pyrimidin-4-yl)-1H-pyrrol-1-yl]propanenitrile] are 4.0 and under 50 nM.
The like results for `N#Cc1c(N2CC[C@H](C(CF)n3cc(-c4ncnc5[nH]ccc45)cn3)C2)ncc2c1S(=O)(=O)CC2` (single isomer, unassigned) [Example 178] were, in that order, 31.8 and under 50 nM.
For the compound `N#CCC(n1cc(-c2ncnc3[nH]ccc23)cn1)C1(F)CCN(c2nc3cccnc3o2)C1` (single isomer, unassigned) [31, Step 4b, enantiomer 2], the “JAK2/JAK1 IC50 ratio” value at Jak2 (a.a. 828-1132) (Assay Conditions 1 mM ATP) is reported as 0.8. Also, in experiment [1] (Assay Conditions 1 mM ATP), the IC50 lay in the range of 100 to 500 nM.
The like results for `N#Cc1nnccc1N1CC[C@H](C(CF)n2cc(-c3ncnc4[nH]ccc34)cn2)C1` (single isomer, unassigned) [Example 116] were, in that order, 6.0 and under 50 nM.
On to `N#CCC(C1CCN(c2nc3cncnc3o2)C1)n1cc(-c2ncnc3[nH]ccc23)cn1` (single isomer, unassigned) [Example 18, 3-(1-[1,3]oxazolo[5,4-d]pyrimidin-2-ylpyrrolidin-3-yl)-3-[4-(7H-pyrrolo[2,3-d]pyrimidin-4-yl)-1H-pyrazol-1-yl]propanenitrile], for which the “JAK2/JAK1 IC50 ratio” value at Jak2 (a.a. 828-1132) (Assay Conditions 1 mM ATP) is listed as 10.3. Also, the IC50 in experiment [1] (Assay Conditions 1 mM ATP) lay within 50 to 100 nM.
Consider `N#CC[C@@H]([C@H]1CCN(c2nc(Cl)ccc2F)C1)n1cc(-c2ncnc3[nH]ccc23)cn1` [Example 94, (3S)-3-[(3S)-1-(6-chloro-3-fluoropyridin-2-yl)pyrrolidin-3-yl]-3-[4-(7H-pyrrolo[2,3-d]pyrimidin-4-yl)-1H-pyrazol-1-yl]propanenitrile trifluoroacetate], for which the “JAK2/JAK1 IC50 ratio” value on Jak2 (a.a. 828-1132) (Assay Conditions 1 mM ATP) came to 17.9. Further, in experiment [1] (Assay Conditions 1 mM ATP), the IC50 is under 50 nM.
`N#CCC(C1CCN(c2ccc3c(n2)S(=O)(=O)CC3)C1)n1ccc(-c2ncnc3[nH]ccc23)c1` (single isomer, unassigned) [34, enantiomer 2]: the “JAK2/JAK1 IC50 ratio” value on Jak2 (a.a. 828-1132) (Assay Conditions 1 mM ATP) is reported as 13.8. In addition, the IC50 in experiment [1] (Assay Conditions 1 mM ATP) was under 50 nM.
For the compound `N#CC[C@@H]([C@H]1CCN(c2cccc(Cl)c2C#N)C1)n1cc(-c2ncnc3[nH]ccc23)cn1` [Example 48, 2-chloro-6-((3S)-3-{(1S)-2-cyano-1-[4-(7H-pyrrolo[2,3-d]pyrimidin-4-yl)-1H-pyrazol-1-yl]ethyl}pyrrolidin-1-yl)benzonitrile trifluoroacetate], the “JAK2/JAK1 IC50 ratio” value at Jak2 (a.a. 828-1132) (Assay Conditions 1 mM ATP) was over 30. In experiment [1] (Assay Conditions 1 mM ATP), the IC50 was under 50 nM.
The like results for `N#CCC(C1CCN(c2ccc3c(n2)C(F)(F)CC3)C1)n1cc(-c2ncnc3[nH]ccc23)cn1` (single isomer, unassigned) [Example 157, 3-[1-(7,7-difluoro-6,7-dihydro-5H-cyclopenta[b]pyridin-2-yl)pyrrolidin-3-yl]-3-[4-(7H-pyrrolo[2,3-d]pyrimidin-4-yl)-1H-pyrazol-1-yl]propanenitrile bis(trifluoroacetate)] were, in that order, over 5.3 and under 50 nM.
Turning to `N#CCC(C1CCN(c2nc3cccnc3o2)C1)n1ccc(-c2ncnc3[nH]ccc23)c1` (single isomer, unassigned) [32, Step 2b (racemate)], the “JAK2/JAK1 IC50 ratio” value on Jak2 (a.a. 828-1132) (Assay Conditions Km (ATP 90 μM for Jak1, 30 μM for Jak2)) is listed as 0.2. In experiment [1] (Assay Conditions Km (ATP 90 μM for Jak1)), the IC50 is 50 to 100 nM.
For the compound `CS(=O)(=O)c1nccc(N2CCC(C(CC#N)n3cc(-c4ncnc5[nH]ccc45)cn3)C2)n1` (single isomer, unassigned) [Example 25, 3-{1-[2-(methylsulfonyl)pyrimidin-4-yl]pyrrolidin-3-yl}-3-[4-(7H-pyrrolo[2,3-d]pyrimidin-4-yl)-1H-pyrazol-1-yl]propanenitrile], the “JAK2/JAK1 IC50 ratio” value on Jak2 (a.a. 828-1132) (Assay Conditions 1 mM ATP) turned out to be 34. The IC50 in experiment [1] (Assay Conditions 1 mM ATP) is under 50 nM.
The like results for `N#CC[C@@H]([C@H]1CCN(c2ncc(Br)nc2C#N)C1)n1cc(-c2ncnc3[nH]ccc23)cn1` [Example 142, 6-bromo-3-(3S)-3-{(1S)-2-cyano-1-[4-(7H-pyrrolo[2,3-d]pyrimidin-4-yl)-1H-pyrazol-1-yl]ethyl}pyrrolidin-1-yl)pyrazine-2-carbonitrile trifluoroacetate] were, in that order, 14.2 and under 50 nM.

A word on the IC50: it is the point on the concentration scale where inhibition reaches its midpoint.
